In patent publication US20250144166A1, “COMPOSITIONS AND METHODS FOR INHIBITING RHO KINASE” (INTERLUDE BIOPHARMA CO., priority 2022, published 2025):
“Also recorded” adds a separate entry of the source. Like-named read-outs stand apart in the source and are kept apart here.

Assays:
tight junction proteins = details: 10 mM LA
Method: (§1) Specifically, the distribution of tight junction proteins and actin structure was evaluated using western blots on membrane and cytosol fractions and immunofluorescence microscope analysis. Mem-PER Eukaryotic Membrane Protein Extraction Reagent Kit (Thermo Scientific) was used to fractionate membrane and cytosolic compartment. The extracted proteins were blotted with primary antibodies anti-ZO-1 and anti-occludin (Invitrogen). The cold methanol fixed monolayers were stained with primary antibodies (ZO-1 and occludin) and phalloidin (F-actin) for immunofluorescence microscope analysis. The stained monolayers were examined with an Olympus IX83 Inverted Motorized Microscope with cellSens software (Olympus, Tokyo, Japan). pMLC-2/MLC-2 expression was evaluated using western blot analysis with primary antibodies for pMLC-2 and MLC-2 (CST, Danvers, MA).

ZO-1, occludin, F-actin = tested on: ZO-1, occludin, F-actin
Method: as §1

C2BBe1 intestinal cells = details: 10 mM LA; A/R injury; compared to non-treated A/R injured cells
Method: Specifically, to evaluate barrier function, transepithelial electrical resistance (TEER) was measured in anoxia/reoxygenation (A/R)-injured C2BBe1 (Caco-2 brush border-expressing Caco-2) cells treated with or without larazotide acetate (LA). Monolayers of C2BBe1 were treated with LA (0.001, 0.1, 1, and 10 mM) and were subjected to anoxia for 2 hours followed by reoxygenation with 21% O2. To generate A/R injury, C2BBe1 cells were placed in a modular incubator chamber (Billups-Rothenberg, San Diego, CA) and flushed with 95% N2/5% CO2 for 5 minutes. The modular chamber was then sealed airtight and placed in an incubator for 2 hours. After 2 hours, the cells were removed from the modular incubator chamber and placed in a 21% O2 normal environment. TEER was measured to assess barrier function during A/R injury and recovery. The TEER was measured using a Chopstick Electrode Set (WPI, LLC, Sarasota, FL) on the basal and apical sides of a monolayer and attached to an Epithelial Volt Ohm Meter2 (WPI, LLC, Sarasota, FL).

C2BBe1 cells [1] = details: 10 mM LA; regular media; 48 hours
Method: This experiment evaluated the role of LA in proliferation and migration. Specifically, proliferation of non-treated or LA-treated (10 mM) C2BBe1 cells was evaluated by the CCK-8 assay kit (Dojindo Molecular Technologies, Rockville, MD) according to the manufacturer's instructions. 10 mM LA was treated every other day to cells seeded in 96-well culture plates. Viable cells were evaluated with the CCK-8 Assay Kit for five consecutive days. Migration was assessed by seeding C2BBe1 cells in 3 well culture-inserts (ibidi GmbH, Gräfelfing, Germany) and removing the inserts after reaching confluence to create a “wound” in the cell monolayer. 10 mM LA was added to serum-free and regular media to assess migration and proliferation, respectively. Images were captured at 0, 4, 8, 24, and 48 hours with Axio Vert A1 microscope (Carl Zeiss AG, Oberkochen, Germany) and closing of the wound was analyzed by measuring migration distance with ImageJ software.

C2BBe1 = tested on: C2BBe1
Method: Specifically, monolayers of C2BBe1 were treated with 10 mM LA and were subjected to anoxia for 2 hours followed by reoxygenation with 21% O2 for 1 hour. Next-generation RNA sequencing and biostatistical analyses were employed to assess cellular regulatory pathways.

C2BBe1 cells [2] = details: 10 mM LA
Method: For barrier function analysis, TEER was measured in monolayers of C2BBe1 cells treated with or without 10 mM LA. TEER was measured using a Chopstick Electrode Set (WPI, LLC, Sarasota, FL) on the basal and apical sides of a monolayer and attached to an Epithelial Volt Ohm Meter2 (WPI, LLC, Sarasota, FL).

C2BBe1 cells [3] = test: TEER in A/R-injured C2BBe1 cells with MLCK and ROCK inhibitors with or without LA; format: cell-based, human; details: 10 mM LA, 1 μM Y-27632 dihydrochloride, 400 μM Peptide 18; A/R injury; FIG. 7
Method: To evaluate barrier function, the TEER was measured in A/R-injured C2BBe1 cells treated with or without LA.

[4] = anoxic cells vs. exposed to LA for 3 h
[5] = control vs. exposed to LA for 3 h

Molecule: larazotide acetate
- occludin in the membrane fraction (immunoblotting) (tight junction proteins; 1-hour reoxygenation, compared to non-treated anoxic injured cells): significantly (p<0.05) increased in the membrane
- disruption of tight junction proteins during A/R injury (tight junction proteins; FIG. 3): prevented disruption of tight junction proteins
- F-actin structure during A/R injury (ZO-1, occludin, F-actin; 10 mM LA, FIG. 4): protected
- localization of tight junction and cytoskeleton proteins (ZO-1, occludin, F-actin) by immunofluorescence (ZO-1, occludin, F-actin; 1-hour reoxygenation, versus non-treated anoxic injured cells): revealed well-organized tight junction proteins and F-actin
- TEER (C2BBe1 intestinal cells): significantly (p<0.001) increases the TEER; also recorded: significantly increased (p<0.001)
- wound healing (C2BBe1 cells [1]): significantly increased wound healing
- translational processes (GO analysis) (C2BBe1; LA-treated cells compared to non-treated cells): significantly increased
- Expression compared to control: AMOTL2 (C2BBe1; [4]): Down
- Expression compared to control: EGR1 (C2BBe1; [4]): Down
- Expression compared to control: HES1 (C2BBe1; [4]): Down
- Expression compared to control: HSPH1 (C2BBe1; [4]): Down
- Expression compared to control: JPH2 (C2BBe1; [4]): Up
- Expression compared to control: NDRG1 (C2BBe1; [4]): Up
- Expression compared to control: PFKFB4 (C2BBe1; [4]): Up
- Expression compared to control: SAMD5 (C2BBe1; [4]): Down
- Expression compared to control: SLC2A3 (C2BBe1; [4]): Up
- Expression compared to control: TNS1 (C2BBe1; [4]): Up
- Ras/Rho GTPase-binding and protein serine/threonine kinase activity (GO analysis) (C2BBe1; cells treated with LA, FIG. 10): differentially expressed
- Expression compared to control: CEBPB (C2BBe1; [5]): Up
- Expression compared to control: DDIT4 (C2BBe1; [5]): Up
- Expression compared to control: EGR1 (C2BBe1; [5]): Up
- Expression compared to control: H1F0 (C2BBe1; [5]): Up
- Expression compared to control: ID2 (C2BBe1; [5]): Up
- Expression compared to control: IGFBP4 (C2BBe1; [5]): Down
- Expression compared to control: ITGA2 (C2BBe1; [5]): Down
- Expression compared to control: MAT2A (C2BBe1; [5]): Down
- Expression compared to control: SAMD5 (C2BBe1; [5]): Down
- Expression compared to control: SYTL2 (C2BBe1; [5]): Down
- TEER (C2BBe1 cells [2]; compared to non-treated A/R injured cells at 1 hour after treatment (FIG. 12 legend)): significantly increased TEER
- TEER (C2BBe1 cells [2]; normal conditions, FIG. 12): increased TEER

Molecule: O=S(=O)(c1cccc2cnccc12)N1CCCNCC1 [Fasudil]
- TEER compared to non-treated A/R injured cells (C2BBe1 cells [3]): increased TEER
